From patent US11130780B2, “Inhibitors of growth factor activation enzymes” (Washington University, priority 2015, dated 2021)
“And” between values parts separate entries of the source, which are not always exact repeats. Equal entries are not always repeated. Where two headings read alike, the source gives them in different places.

Tests used:
Format in all cases: biochemical
HGFA [1] = molecular target: T1, HGFA (Homo sapiens, UniProt Q04756); assay: Fluorescent kinetic enzyme inhibitor assay of HGFA; settings: Fluorogenic Assay, read-out: HGFA Ki
T1 construct: His6 tag (N); seven amino acid spacer and seven amino acid TEV cleavage site (N); Honey Bee melittin signal peptide (N); made in house; host or cells: High 5 insect cells (baculovirus; virus raised in Sf9)
T1 sequence (Q04756 373-655): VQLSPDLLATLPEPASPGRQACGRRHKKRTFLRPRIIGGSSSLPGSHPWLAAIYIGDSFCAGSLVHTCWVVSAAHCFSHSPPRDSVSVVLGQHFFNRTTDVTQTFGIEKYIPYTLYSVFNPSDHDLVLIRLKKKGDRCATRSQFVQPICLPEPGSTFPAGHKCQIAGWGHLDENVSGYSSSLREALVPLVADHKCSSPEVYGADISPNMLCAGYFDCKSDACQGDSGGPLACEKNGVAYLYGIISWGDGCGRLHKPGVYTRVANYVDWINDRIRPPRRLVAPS
Excerpt: Using primers identified as SEQ ID NO 1, SEQ ID NO 2, and standard PCR protocols, the nucleotide sequence encoding amino acids 373-655 of HGFA was synthesized. This PCR product was cloned into the SfoI-HindIII sites of a modified pFastBac HT baculovirus expression vector (Addgene, Cambridge, Mass.). This vector contains a six amino His tag followed by a seven amino spacer and a seven amino acid TEV cleavage site placed immediately downstream of the Honey Bee melittin signal peptide. Using a modified Bac to Bac Expression System (Life Technologies, Carlsbad, Calif.), recombinant HGFA bacmids were obtained by transforming DH10Bac Escherichia coli cells. To obtain HGFA containing baculovirus, purified bacmids were transfected into Sf9 insect cells. After 5 days in culture at 27° C., media was harvested from transfected Sf9 cells. This media was used to prepare baculovirus infected insect cells (BIICs). These BIIICs were used to infect High 5 insect cells. Four days post infection, media was harvested and recombinant protein prepared as follows. Media was chilled to 4° C. and spun at 4000×g for 20 minutes (all subsequent steps were performed at 4° C. unless noted). Clarified media was passed first through a Whatman GF/B 1 um (#1821-047, GE Healthcare Life Sciences, Piscataway, N.J.) and then a 0.22 um PES membrane (#99955, TPP Techno Plastic Products AG, Trasadingen, Switzerland) and then concentrated using a Pall Centramate tangential flow system and Centramate T-series Cassette (#OS010T12, Pall Corporation, Port Washington, N.Y.). Concentrated media was then buffer exchanged in two steps, five volumes of 50 mM Na-phosphate, 500 mM NaCl, pH 6.2, followed by five volumes of 50 mM Na-phosphate, 500 mM NaCl, pH 7.5. The concentrated and buffered exchanged insect cell media was again filtered as above and made 25 mM imidazole (#1202, Sigma-Aldrich, St. Louis, Mo.) and was mixed with nickel agarose beads (#H-321-25, Gold Biotechnology, Inc., St. Louis Mo.). After mixing this slurry for 12 hours, nickel agarose beads were allowed to settle by gravity and then loaded into a column. Beads were washed with buffer (25 mM Na-phosphate, 500 mM NaCl, 25 mM imidazole, pH 8) and the bound protein eluted using (25 mM Na-phosphate, 500 mM NaCl, 250 mM imidazole, pH 8). Using a Amicon Ultra-4 Centrifugal filters (#UFC801008, Merck Millipore, Ltd., Tullagreen, Ireland), peak protein fractions were concentrated and run over a Superdex-200 10/300 GL column (GE Healthcare Life Sciences, Piscataway, N.J.) in 10 mM Tris, 200 mM NaCl, 0.2 mM EDTA, pH 8. HGFA containing fractions were pooled, concentrated, made 50% glycerol, and stored at minus 20° C. Protein was quantitated using a modified Lowry protein assay (#500-0006, Bio-Rad Laboratories, Hercules, Calif.).
(§1) Inhibitors (11-pt serial dilutions, 0-20 μM final concentration in reaction) were serially diluted in DMSO (2% DMSO final concentration) and then mixed with either recombinant serine protease domain of HGFA [Z. Han, P. K. Harris, D. E. Jones, R. Chugani, T. Kim, M. Agarwal, W. Shen, S. A. Wildman, J. W. Janetka, Acs Med Chem Lett 2014, 5, 1219-1224], matriptase (Charles Craik, UCSF) or hepsin* (#4776-SE-010, R&D Systems, Minneapolis, Minn.) in black 384 well plates (Corning #3575. Corning, N.Y.). […] The final substrate concentrations for all assays were at the Km for the respective enzymes. Changes in fluorescence (excitation at 380 nm and emission at 460 nm) were measured at room temperature over time in a Biotek Synergy 2 plate reader (Winnoski, Vt.). Using GraphPad Prism version 6.04 software program, (GraphPad Software, San Diego, Calif., www.graphpad.com), a four parameter curve fit was used to determine the inhibitor IC50s from a plot of the mean reaction velocity versus the inhibitor concentration. The IC50 values represent the average of three separate experimental determinations.

hepsin [2] = molecular target: T2, hepsin (Homo sapiens, UniProt P05981); assay: Fluorescent kinetic enzyme inhibitor assay of hepsin; settings: Fluorogenic Assay, read-out: Hepsin Ki
T2 construct: purchased R&D Systems 4776-SE-010
T2 sequence (P05981 163-417 limits assumed): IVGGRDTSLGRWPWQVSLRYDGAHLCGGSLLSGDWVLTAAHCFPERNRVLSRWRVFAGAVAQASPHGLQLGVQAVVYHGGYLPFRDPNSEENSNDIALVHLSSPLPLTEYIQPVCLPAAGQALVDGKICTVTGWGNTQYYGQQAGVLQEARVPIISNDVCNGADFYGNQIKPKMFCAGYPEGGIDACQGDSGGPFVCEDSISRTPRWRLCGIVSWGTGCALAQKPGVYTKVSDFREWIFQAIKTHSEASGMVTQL
T2 sequence (P05981 45-162 partner limits assumed): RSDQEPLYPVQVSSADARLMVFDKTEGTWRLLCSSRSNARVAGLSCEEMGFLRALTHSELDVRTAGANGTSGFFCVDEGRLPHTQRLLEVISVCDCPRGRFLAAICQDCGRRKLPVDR
Method: as §1

matriptase = molecular target: T3, matriptase (Homo sapiens, UniProt Q9Y5Y6); assay: Fluorescent kinetic enzyme inhibitor assay of matriptase; settings: Fluorogenic Assay
T3 construct: Charles Craik, UCSF (obtained from another laboratory)
T3 sequence (Q9Y5Y6 615-855 limits assumed): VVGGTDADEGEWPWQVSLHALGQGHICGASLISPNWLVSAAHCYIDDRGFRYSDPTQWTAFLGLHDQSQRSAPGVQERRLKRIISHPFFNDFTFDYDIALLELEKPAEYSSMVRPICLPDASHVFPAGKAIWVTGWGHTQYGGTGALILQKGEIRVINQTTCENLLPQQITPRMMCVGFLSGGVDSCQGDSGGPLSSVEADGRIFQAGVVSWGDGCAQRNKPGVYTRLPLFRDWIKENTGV
Method: as §1

hepsin [3] = molecular target: T2, hepsin; assay: P4-P2 substrate specificity using HyCoSuL, hepsin; parameters: concentration or dose not given beside the values; settings: HyCoSuL substrate library; for P2 Position % Activity Hepsin: amino acid fixed at P2 position; for P3 Position % Activity Hepsin: amino acid fixed at P3 position; for P4 Position % Activity Hepsin: amino acid fixed at P4 position
Method: (§2) Each of the P4, P3, and P2 sublibraries were screened at the 100 μM concentration with hepsin either HGFA in a 100 μL final volume per well (99 μL of protease in buffer+1 μL of 10 mM substrates mixture). The total time of the assay was 30 minutes, however only linear portions of the progress curve (5-15 minutes) were used for velocity (RFU/s) calculations. Each sublibrary screening was repeated at least 3-times and the average value calculated from each measurement was used to create the substrate specificity matrix—the best recognized amino acid in each position was set to 100%, and other amino acids were adjusted accordingly.
Recombinant human hepsin (10 μg in 20 uL, 4776-SE-010, R&D Systems) was added to the 100 μL of activation buffer (0.1 M Tris, 0.15 M NaCl, 0.01 M CaCl2, 0.05% TRITON-X, pH=8.0) and incubated at 37° C. for 24 hours (hepsin concentration in activation buffer 2 μM). Once activated hepsin was diluted in assay buffer (0.05 M Tris, pH=9.0) to the final concentration of 4 nM and incubated at 37° C. for 15 minutes before added to a substrate.

HGFA [4] = molecular target: T4, HGFA (Homo sapiens, UniProt Q04756); assay: P4-P2 substrate specificity using HyCoSuL, HGFA; parameters: P3 Position % Activity HGFA / P2 Position % Activity HGFA: concentration or dose not given beside the values; P4 Position % Activity HGFA: tested at 100 µM; settings: HyCoSuL substrate library; for P2 Position % Activity HGFA: amino acid fixed at P2 position; for P3 Position % Activity HGFA: amino acid fixed at P3 position; for P4 Position % Activity HGFA: amino acid fixed at P4 position
T4 sequence (Q04756 408-655 limits assumed): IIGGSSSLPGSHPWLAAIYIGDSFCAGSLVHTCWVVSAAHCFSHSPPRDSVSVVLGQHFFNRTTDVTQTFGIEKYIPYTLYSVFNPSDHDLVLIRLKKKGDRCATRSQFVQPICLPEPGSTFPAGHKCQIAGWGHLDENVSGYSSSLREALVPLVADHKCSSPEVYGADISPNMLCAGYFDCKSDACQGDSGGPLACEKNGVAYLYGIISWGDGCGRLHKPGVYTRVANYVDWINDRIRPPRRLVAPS
T4 sequence (Q04756 373-407 partner limits assumed): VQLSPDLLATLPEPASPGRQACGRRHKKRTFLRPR
Method: as §2
HFGA enzyme was diluted in the assay buffer (0.15 M NaCl, 0.025 M Tris, 0.005 M CaCl2, pH=8.0) to the final concentration of 10-20 nM (depending of sublibrary) and incubated at 25° C. for 30 minutes before added to a substrate.

N=C(N)NCCC[C@H](NC(=O)[C@H](Cc1ccccc1)NC(=O)[C@H](N)Cc1c[nH]c2ccccc12)C(=O)c1nc2ccc(C(=O)O)cc2s1 [Compound 1-45A1, H-dWFR-kbt-COOH]
Ki (HGFA [1]; Table 6.1): 0.981 µM
Ki (hepsin [2]; Table 6.1): 0.00141 µM

N=C(N)c1cccc(C[C@H](NS(=O)(=O)c2ccc3ccccc3c2)C(=O)N2CCC(c3ccccc3)CC2)c1 [Compound 16, (S)-3-(2-(Naphthalene-2-sulfonamido)-3-oxo-3-(4-phenylpiperidin-1-yl)propyl)benzimidamide]
Ki (HGFA [1]; Table 9.1): 10.1 µM
Ki (matriptase; Table 9.1): 0.3 µM
Ki (hepsin [2]; Table 9.1): 3.28 µM

Cc1ccc(S(=O)(=O)N[C@@H](Cc2cccc(C(=N)N)c2)C(=O)N2CCN(C(=O)OCc3ccccc3)CC2)cc1 [Compound 25h, (S)-Benzyl 4-(3-(3-carbamimidoylphenyl)-2-(4-methylphenylsulfonamido)propanoyl)piperazine-1-carboxylate]
Ki (HGFA [1]; Table 9.1): > 50 µM
Ki (hepsin [2]; Table 9.1): 2.4 µM

CC(C)c1cc(C(C)C)c(S(=O)(=O)N[C@@H](Cc2cccc(C(=N)N)c2)C(=O)N2CCN(C(=O)C3CCNCC3)CC2)c(C(C)C)c1 [Compound 26]
Ki (hepsin [2]; Table 9.1): 8.14 µM and 8.13 µM

CC(C)C(=O)N1CCN(C(=O)[C@H](Cc2cccc(C(=N)N)c2)NS(=O)(=O)c2ccc3ccccc3c2)CC1 [Compound 29]
Ki (matriptase; Table 9.1): > 20 µM
Ki (hepsin [2]; Table 9.1): > 20 µM

CC(C)CN1CCN(C(=O)[C@H](Cc2cccc(C(=N)N)c2)NS(=O)(=O)c2ccc3ccccc3c2)CC1 [Compound 30]
Ki (matriptase; Table 9.1): 12.4 µM
Ki (hepsin [2]; Table 9.1): 4.9 µM

N=C(N)c1cccc(C[C@H](NS(=O)(=O)c2ccc3ccccc3c2)C(=O)N2CCN(C(=O)Cc3cccc(O)c3)CC2)c1 [Compound 31]
Ki (matriptase; Table 9.1): 4.4 µM
Ki (hepsin [2]; Table 9.1): 1.7 µM

N=C(N)c1cccc(C[C@H](NS(=O)(=O)c2ccc3ccccc3c2)C(=O)N2CCN(C(=O)Cc3ccc(F)cc3)CC2)c1 [Compound 32]
Ki (matriptase; Table 9.1): 2.8 µM
Ki (hepsin [2]; Table 9.1): 1 µM

N=C(N)NCCC[C@H](NC(=O)[C@H](CCC(N)=O)NC(=O)OCC1c2ccccc2-c2ccccc21)C(=O)c1nc2ccccc2s1 [Compound 7185-6, Fmoc-QR-kbt]
Ki (matriptase; Table 6.1): 0.0016 µM

CCOC(=O)N1CCN(C(=O)[C@H](Cc2cccc(C(=N)N)c2)NS(=O)(=O)c2ccc3ccccc3c2)CC1 [FMF-1-275-004]
Ki (matriptase; Table 9.1): 2.78 µM
Ki (hepsin [2]; Table 9.1): 39.5 µM

D-His
P2 Position % Activity Hepsin (hepsin [3]): 0.00%
P3 Position % Activity Hepsin (hepsin [3]): 40.09%
P4 Position % Activity Hepsin (hepsin [3]): 19.33%
P2 Position % Activity HGFA (HGFA [4]): 0.00%
P3 Position % Activity HGFA (HGFA [4]): 11.09%
P4 Position % Activity HGFA (HGFA [4]): 7.79%

D-Val
P2 Position % Activity Hepsin (hepsin [3]): 0.00%
P3 Position % Activity Hepsin (hepsin [3]): 27.04%
P4 Position % Activity Hepsin (hepsin [3]): 22.58%
P2 Position % Activity HGFA (HGFA [4]): 0.00%
P3 Position % Activity HGFA (HGFA [4]): 5.76%
P4 Position % Activity HGFA (HGFA [4]): 8.25%

L-Dab
P2 Position % Activity Hepsin (hepsin [3]): 13.49%
P3 Position % Activity Hepsin (hepsin [3]): 48.55%
P4 Position % Activity Hepsin (hepsin [3]): 47.53%
P2 Position % Activity HGFA (HGFA [4]): 0.50%
P3 Position % Activity HGFA (HGFA [4]): 29.40%
P4 Position % Activity HGFA (HGFA [4]): 16.76%

L-Pip
P2 Position % Activity Hepsin (hepsin [3]): 10.66%
P3 Position % Activity Hepsin (hepsin [3]): 1.64%
P4 Position % Activity Hepsin (hepsin [3]): 34.68%
P2 Position % Activity HGFA (HGFA [4]): 1.75%
P3 Position % Activity HGFA (HGFA [4]): 0.83%
P4 Position % Activity HGFA (HGFA [4]): 9.25%

β-Ala
P2 Position % Activity Hepsin (hepsin [3]): 0.00%
P3 Position % Activity Hepsin (hepsin [3]): 22.78%
P4 Position % Activity Hepsin (hepsin [3]): 30.74%
P2 Position % Activity HGFA (HGFA [4]): 0.24%
P3 Position % Activity HGFA (HGFA [4]): 15.95%
P4 Position % Activity HGFA (HGFA [4]): 10.07%
